Here are results for 14 molecules from PubChem BioAssay (NCI).

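Protocol summary: plate cells (96-well), add compound at 5 concentrations, incubate 48 h, interpolate endpoints linearly. The concentration for 50% growth inhibition is given as GI50. Definition used: TGI = concentration required for complete inhibition of growth.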 A value given as a limit tells only on which side of the number the result lay.

Among the test systems are OVCAR-4 ovarian; A549 NSCLC; SK-MEL-2 melanoma; MALME-3M melanoma; MOLT-4 leukemia; LOX IMVI melanoma; 786-0 renal; SW-620 colon; CCRF-CEM leukemia; HOP-92 NSCLC; MDA-MB-435.
Assay in all cases: growth of human tumour cells (NCI), 48 h

Regarding `CCOc1ccccc1N=Nc1ccc2oc(=O)c(C(C)=O)cc2c1`, the TGI in the experiment on OVCAR-4 ovarian, with A549 NSCLC, in the experiment with SK-MEL-2 melanoma, in the experiment on MALME-3M melanoma, in the experiment on MOLT-4 leukemia and in the experiment on LOX IMVI melanoma was > 100 µM throughout. For the same molecule, the TGI in the experiment on 786-0 renal, in the experiment with SW-620 colon and in the experiment on CCRF-CEM leukemia was > 100 µM in each case.
Regarding `CC1=CC2C(C=C1)S(=O)(=O)N1CC21c1ccccc1` (centres undefined), the TGI in the experiment on A549 NSCLC, with SK-MEL-2 melanoma, in the experiment with MALME-3M melanoma, in the experiment on LOX IMVI melanoma, in the experiment with HOP-92 NSCLC and in the experiment with 786-0 renal was > 100 µM throughout. In addition, the TGI in the experiment on SW-620 colon and in the experiment on CCRF-CEM leukemia was > 100 µM each time.
Regarding `CC1(C)OC(=O)C(C)(C)C(=O)O1`, the TGI in the experiment with OVCAR-4 ovarian, in the experiment with A549 NSCLC, in the experiment on SK-MEL-2 melanoma, in the experiment on MALME-3M melanoma, in the experiment on MOLT-4 leukemia and in the experiment on LOX IMVI melanoma was > 100 µM throughout. The TGI in the experiment with 786-0 renal, with SW-620 colon and in the experiment with CCRF-CEM leukemia was > 100 µM throughout.
`CSc1ncnc2c1cnn2Cc1cnnn1COCC(O)CO` (centres undefined): the TGI with OVCAR-4 ovarian, in the experiment with A549 NSCLC, in the experiment on SK-MEL-2 melanoma, in the experiment on MOLT-4 leukemia, in the experiment on LOX IMVI melanoma and in the experiment with 786-0 renal was > 100 µM each time. Besides, the TGI in the experiment with SW-620 colon, with CCRF-CEM leukemia and with MDA-MB-435 was > 100 µM in each case.
Take `CC1=C(c2nc3ccccc3s2)C(=O)OC1(C)C`: the TGI with OVCAR-4 ovarian, in the experiment on A549 NSCLC, in the experiment with SK-MEL-2 melanoma, in the experiment with MALME-3M melanoma, with MOLT-4 leukemia and in the experiment on LOX IMVI melanoma was > 100 µM in each case. The TGI in the experiment with 786-0 renal, with SW-620 colon and with CCRF-CEM leukemia was > 100 µM each time.
`CCOC1=C2N=C(C(CC)c3ccccc3F)N=C2C(=O)c2ccccc21` (centres undefined): the TGI with OVCAR-4 ovarian, in the experiment on A549 NSCLC, with SK-MEL-2 melanoma, in the experiment on MALME-3M melanoma, with MOLT-4 leukemia and in the experiment on HOP-92 NSCLC was > 100 µM throughout. Further, the TGI in the experiment on 786-0 renal, with SW-620 colon and in the experiment with CCRF-CEM leukemia was > 100 µM throughout.
On to `Cc1cc2ncn(-c3nc4ccccc4nc3C(C#N)S(C)(=O)=O)c2cc1C` (centres undefined), for which the TGI in the experiment on OVCAR-4 ovarian, with A549 NSCLC, in the experiment with SK-MEL-2 melanoma, with MALME-3M melanoma, in the experiment on MOLT-4 leukemia and in the experiment on LOX IMVI melanoma was > 100 µM each time. Besides, the TGI in the experiment with 786-0 renal, in the experiment with SW-620 colon and in the experiment with CCRF-CEM leukemia was > 100 µM each time.
`N#CC(NNC(=O)Cc1ccccc1)c1cccc(O)c1` (centres undefined): the TGI in the experiment on OVCAR-4 ovarian, in the experiment on A549 NSCLC, in the experiment on SK-MEL-2 melanoma, in the experiment on MALME-3M melanoma, in the experiment with MOLT-4 leukemia and in the experiment on LOX IMVI melanoma was > 100 µM each time. Further, the TGI with HOP-92 NSCLC, in the experiment with 786-0 renal, in the experiment on SW-620 colon and with CCRF-CEM leukemia was > 100 µM throughout.
Regarding `CCOC(=O)N/N=C(/N)c1cccc(Br)c1`, the TGI in the experiment with OVCAR-4 ovarian, in the experiment with A549 NSCLC, in the experiment with SK-MEL-2 melanoma, with MALME-3M melanoma, in the experiment on MOLT-4 leukemia and in the experiment on LOX IMVI melanoma was > 100 µM in each case. Besides, the TGI in the experiment on 786-0 renal and in the experiment with CCRF-CEM leukemia was > 100 µM throughout.
Regarding `COc1ccc2[nH]c3c(c2c1)[C@H](c1ccccc1)C[C@@H]1C(=O)N(c2ccccc2)C(=O)[C@H]31`, the TGI in the experiment with OVCAR-4 ovarian is 31 µM; in the experiment on A549 NSCLC, 35.8 µM; in the experiment on SK-MEL-2 melanoma, > 100 µM; in the experiment on MALME-3M melanoma it was > 100 µM; in the experiment with MOLT-4 leukemia it was 31.5 µM; in the experiment with LOX IMVI melanoma, > 100 µM. Also, the TGI worked out at 76.3 µM in the experiment with HOP-92 NSCLC, 35.3 µM in the experiment on 786-0 renal, 49.7 µM with SW-620 colon and 95.2 µM with CCRF-CEM leukemia.
Consider `COc1nc(N=P(c2ccccc2)(c2ccccc2)c2ccccc2)cc(=O)n1C`, for which the TGI in the experiment on OVCAR-4 ovarian, in the experiment on A549 NSCLC, in the experiment on SK-MEL-2 melanoma, with MOLT-4 leukemia, with LOX IMVI melanoma and in the experiment on HOP-92 NSCLC was > 100 µM in each case. Also, the TGI with 786-0 renal, with SW-620 colon, in the experiment with CCRF-CEM leukemia and in the experiment with MDA-MB-435 was > 100 µM each time.
Take `CCOC(=O)c1c2ccc(/C=C/c3ccccn3)ccc-2c(C(=O)OCC)c1N`: the TGI with OVCAR-4 ovarian, with A549 NSCLC, in the experiment with SK-MEL-2 melanoma, with MALME-3M melanoma, in the experiment with MOLT-4 leukemia and in the experiment on LOX IMVI melanoma was > 100 µM throughout. Besides, the TGI in the experiment on HOP-92 NSCLC, in the experiment with 786-0 renal, in the experiment with SW-620 colon and in the experiment on CCRF-CEM leukemia was > 100 µM each time.
In the case of `O=C1[C@@H]2C(c3ccc(Br)cc3)=NO[C@@H]2C(=O)N1c1ccc(Cc2ccc(N3C(=O)[C@H]4C(c5ccc(Br)cc5)=NO[C@H]4C3=O)cc2)cc1`, the GI50 in the experiment with OVCAR-4 ovarian, with SK-MEL-2 melanoma, in the experiment with MALME-3M melanoma, with MOLT-4 leukemia, with SW-620 colon and in the experiment on CCRF-CEM leukemia was > 40 µM in each case. The TGI in the experiment with OVCAR-4 ovarian is > 40 µM; in the experiment on A549 NSCLC, > 3.48 µM; with SK-MEL-2 melanoma, > 40 µM; with MALME-3M melanoma, > 40 µM; with MOLT-4 leukemia it was > 40 µM; with HOP-92 NSCLC, > 40 µM. For the same molecule, the TGI in the experiment on 786-0 renal was > 3.48 µM; in the experiment on SW-620 colon it was > 40 µM; in the experiment on CCRF-CEM leukemia, > 40 µM.
For the molecule `O=Cc1c[nH]c2c(=O)[nH]cnc12`, the TGI in the experiment on A549 NSCLC, in the experiment with SK-MEL-2 melanoma, in the experiment with MALME-3M melanoma, in the experiment on MOLT-4 leukemia, in the experiment on LOX IMVI melanoma and in the experiment on HOP-92 NSCLC was > 100 µM throughout. Further, the TGI with 786-0 renal, in the experiment on SW-620 colon and with CCRF-CEM leukemia was > 100 µM each time.
